Source: ChEMBL document CHEMBL2331210, “New 2-benzylsulfanyl-nicotinic acid based 1,3,4-oxadiazoles: their synthesis and biological evaluation” (2013)
Values after ≈ are worked out from the molar mass of the structure shown.

Key:
Type in all cases: functional
[1] = system: HCT-15; test: Antitumor activity against human HCT15 cells assessed as cell growth at 0.1 uM; conditions: read-out: Activity
[2] = system: BT-549; test: Antitumor activity against human BT549 cells assessed as cell growth at 0.1 uM; conditions: read-out: Activity
[3] = system: OVCAR-3; test: Antitumor activity against human OVCAR3 cells assessed as cell growth at 0.1 uM; conditions: read-out: Activity
[4] = system: SF-539; test: Antitumor activity against human SF539 cells assessed as cell growth at 0.1 uM; conditions: read-out: Activity
[5] = system: HT-29; test: Antitumor activity against human HT-29 cells assessed as cell growth at 0.1 uM; conditions: read-out: Activity
[6] = system: Aspergillus niger; test: Antimicrobial activity against Aspergillus niger MTCC 282 assessed as growth inhibition measured after overnight incubation by broth dilution method
[7] = system: Malme-3M; test: Antitumor activity against human MALME-3M cells assessed as cell growth at 0.1 uM; conditions: read-out: Activity
[8] = system: RPMI-8226; test: Antitumor activity against human RPMI8226 cells assessed as cell growth at 0.1 uM; conditions: read-out: Activity
[9] = system: SN12C; test: Antitumor activity against human SN12C cells assessed as cell growth at 0.1 uM; conditions: read-out: Activity
[10] = system: MDA-MB-435; test: Antitumor activity against human MDA-MB-435 cells assessed as cell growth at 0.1 uM; conditions: read-out: Activity
[11] = system: TK-10; test: Antitumor activity against human TK10 cells assessed as cell growth at 0.1 uM; conditions: read-out: Activity
[12] = Antitumor activity against human EKVX cells assessed as cell growth at 0.1 uM; conditions: read-out: Activity
[13] = system: A549; test: Antitumor activity against human A549/ATCC cells assessed as cell growth at 0.1 uM; conditions: read-out: Activity
[14] = system: ACHN; test: Antitumor activity against human ACHN cells assessed as cell growth at 0.1 uM; conditions: read-out: Activity
[15] = system: UO-31; test: Antitumor activity against human UO31 cells assessed as cell growth at 0.1 uM; conditions: read-out: Activity
[16] = system: Candida albicans; test: Antimicrobial activity against Candida albicans MTCC 227 assessed as growth inhibition measured after overnight incubation by broth dilution method
[17] = system: NCI-H23; test: Antitumor activity against human NCI-H23 cells assessed as cell growth at 0.1 uM; conditions: read-out: Activity
[18] = system: SW-620; test: Antitumor activity against human SW620 cells assessed as cell growth at 0.1 uM; conditions: read-out: Activity
[19] = system: NCI-H226; test: Antitumor activity against human NCI-H226 cells assessed as cell growth at 0.1 uM; conditions: read-out: Activity
[20] = system: IGROV-1; test: Antitumor activity against human IGROV1 cells assessed as cell growth at 0.1 uM; conditions: read-out: Activity
[21] = system: SK-OV-3; test: Antitumor activity against human SKOV3 cells assessed as cell growth at 0.1 uM; conditions: read-out: Activity
[22] = system: SK-MEL-28; test: Antitumor activity against human SK-MEL-28 cells assessed as cell growth at 0.1 uM; conditions: read-out: Activity
[23] = system: Aspergillus clavatus; test: Antimicrobial activity against Aspergillus clavatus MTCC 1323 assessed as growth inhibition measured after overnight incubation by broth dilution method
[24] = system: U-251; test: Antitumor activity against human U251 cells assessed as cell growth at 0.1 uM; conditions: read-out: Activity
[25] = system: NCI/ADR-RES; test: Antitumor activity against human NCI/ADR-RES cells assessed as cell growth at 0.1 uM; conditions: read-out: Activity
[26] = system: SR; test: Antitumor activity against human SR cells assessed as cell growth at 0.1 uM; conditions: read-out: Activity
[27] = system: LOX IMVI; test: Antitumor activity against human LOXIMVI cells assessed as cell growth at 0.1 uM; conditions: read-out: Activity
[28] = system: UACC-62; test: Antitumor activity against human UACC62 cells assessed as cell growth at 0.1 uM; conditions: read-out: Activity
[29] = system: RXF 393; test: Antitumor activity against human RXF393 cells assessed as cell growth at 0.1 uM; conditions: read-out: Activity
[30] = system: DU-145; test: Antitumor activity against human DU145 cells assessed as cell growth at 0.1 uM; conditions: read-out: Activity
[31] = system: MOLT-4; test: Antitumor activity against human MOLT4 cells assessed as cell growth at 0.1 uM; conditions: read-out: Activity
[32] = system: A498; test: Antitumor activity against human A498 cells assessed as cell growth at 0.1 uM; conditions: read-out: Activity
[33] = system: PC-3; test: Antitumor activity against human PC3 cells assessed as cell growth at 0.1 uM; conditions: read-out: Activity
[34] = Antitumor activity against human Hs 578T cells assessed as cell growth at 0.1 uM; conditions: read-out: Activity
[35] = system: Escherichia coli; test: Antimicrobial activity against Escherichia coli MTCC 443 assessed as growth inhibition measured after overnight incubation by broth dilution method
[36] = Antitumor activity against human HCC2998 cells assessed as cell growth at 0.1 uM; conditions: HCC 2998, read-out: Activity
[37] = system: CCRF-CEM; test: Antitumor activity against human CCRF-CEM cells assessed as cell growth at 0.1 uM; conditions: read-out: Activity
[38] = system: SNB-19; test: Antitumor activity against human SNB19 cells assessed as cell growth at 0.1 uM; conditions: read-out: Activity
[39] = system: OVCAR-5; test: Antitumor activity against human OVCAR5 cells assessed as cell growth at 0.1 uM; conditions: read-out: Activity
[40] = system: Streptococcus pyogenes; test: Antimicrobial activity against Streptococcus pyogenes MTCC 442 assessed as growth inhibition measured after overnight incubation by broth dilution method
[41] = system: NCI-H460; test: Antitumor activity against human NCI-H460 cells assessed as cell growth at 0.1 uM; conditions: read-out: Activity
[42] = system: Pseudomonas aeruginosa; test: Antimicrobial activity against Pseudomonas aeruginosa MTCC 2488 assessed as growth inhibition measured after overnight incubation by broth dilution method
[43] = system: OVCAR-8; test: Antitumor activity against human OVCAR8 cells assessed as cell growth at 0.1 uM; conditions: read-out: Activity
[44] = system: SNB-75; test: Antitumor activity against human SNB75 cells assessed as cell growth at 0.1 uM; conditions: read-out: Activity
[45] = system: MCF7; test: Antitumor activity against human MCF7 cells assessed as cell growth at 0.1 uM; conditions: read-out: Activity
[46] = system: M14; test: Antitumor activity against human M14 cells assessed as cell growth at 0.1 uM; conditions: read-out: Activity
[47] = system: MDA-MB-231; test: Antitumor activity against human MDA-MB-231/ATCC cells assessed as cell growth at 0.1 uM; conditions: read-out: Activity
[48] = system: K562; test: Antitumor activity against human K562 cells assessed as cell growth at 0.1 uM; conditions: read-out: Activity
[49] = system: SF-268; test: Antitumor activity against human SF268 cells assessed as cell growth at 0.1 uM; conditions: read-out: Activity
[50] = system: Staphylococcus aureus; test: Antimicrobial activity against Staphylococcus aureus MTCC 96 assessed as growth inhibition measured after overnight incubation by broth dilution method
[51] = system: Mycobacterium tuberculosis; test: Antitubercular activity against Mycobacterium tuberculosis H37Rv assessed as growth inhibition after 12 to 28 days by L.J. agar MIC method
[52] = system: MDA-MB-468; test: Antitumor activity against human MDA-MB-468 cells assessed as cell growth at 0.1 uM; conditions: read-out: Activity
[53] = system: CAKI-1; test: Antitumor activity against human CAKI-1 cells assessed as cell growth at 0.1 uM; conditions: read-out: Activity
[54] = system: NCI-H522; test: Antitumor activity against human NCI-H522 cells assessed as cell growth at 0.1 uM; conditions: read-out: Activity
[55] = system: HL-60; test: Antitumor activity against human HL60(TB) cells assessed as cell growth at 0.1 uM; conditions: read-out: Activity
[56] = system: SF-295; test: Antitumor activity against human SF295 cells assessed as cell growth at 0.1 uM; conditions: read-out: Activity
[57] = system: T47D; test: Antitumor activity against human T47D cells assessed as cell growth at 0.1 uM; conditions: read-out: Activity
[58] = system: KM12; test: Antitumor activity against human KM12 cells assessed as cell growth at 0.1 uM; conditions: read-out: Activity
[59] = system: HCT-116; test: Antitumor activity against human HCT116 cells assessed as cell growth at 0.1 uM; conditions: read-out: Activity
[60] = system: UACC-257; test: Antitumor activity against human UACC257 cells assessed as cell growth at 0.1 uM; conditions: read-out: Activity
[61] = system: HOP-62; test: Antitumor activity against human HOP62 cells assessed as cell growth at 0.1 uM; conditions: read-out: Activity
[62] = system: OVCAR-4; test: Antitumor activity against human OVCAR4 cells assessed as cell growth at 0.1 uM; conditions: read-out: Activity
[63] = system: SK-MEL-5; test: Antitumor activity against human SK-MEL-5 cells assessed as cell growth at 0.1 uM; conditions: read-out: Activity

For `c1ccc(CSc2ncccc2-c2nnc(SCCN3CCOCC3)o2)cc1`, the growth at 0.1 µM [1] was 105%, the growth at 0.1 µM [2] was 112% and the growth at 0.1 µM [3] was 120%. The growth at 0.1 µM [4] was 132%, the growth at 0.1 µM [5] was 111% and the MIC [6] was 1000 µg/mL (≈ 2410 µM). The growth at 0.1 µM [7] was 111%, the growth at 0.1 µM [8] was 104% and the growth at 0.1 µM [9] was 114%. It also gave a growth at 0.1 µM [10] of 114%, a growth at 0.1 µM [11] of 118% and a growth at 0.1 µM [12] of 108%. For the same molecule, the growth at 0.1 µM [13] was 112%, the growth at 0.1 µM [14] was 124% and the growth at 0.1 µM [15] was 89.4%. It also gave an MIC [16] of 1000 µg/mL (≈ 2410 µM), a growth at 0.1 µM [17] of 104% and a growth at 0.1 µM [18] of 107%. It also gave a growth at 0.1 µM [19] of 114%, a growth at 0.1 µM [20] of 98.3% and a growth at 0.1 µM [21] of 109%. For the same molecule, the growth at 0.1 µM [22] was 107%, the MIC [23] was 1000 µg/mL (≈ 2410 µM) and the growth at 0.1 µM [24] was 117%. For the same molecule, the growth at 0.1 µM [25] was 107%, the growth at 0.1 µM [26] was 104% and the growth at 0.1 µM [27] was 108%. It also gave a growth at 0.1 µM [28] of 113%, a growth at 0.1 µM [29] of 123% and a growth at 0.1 µM [30] of 112%. For the same molecule, the growth at 0.1 µM [31] was 103%, the growth at 0.1 µM [32] was 107% and the growth at 0.1 µM [33] was 111%. It also gave a growth at 0.1 µM [34] of 133%, an MIC [35] of 200 µg/mL (≈ 482 µM) and a growth at 0.1 µM [36] of 116%. For the same molecule, the growth at 0.1 µM [37] was 103%, the growth at 0.1 µM [38] was 115% and the growth at 0.1 µM [39] was 119%. The MIC [40] was 200 µg/mL (≈ 482 µM), the growth at 0.1 µM [41] was 122% and the MIC [42] was 200 µg/mL (≈ 482 µM). It also gave a growth at 0.1 µM [43] of 109%, a growth at 0.1 µM [44] of 79.6% and a growth at 0.1 µM [45] of 94.4%. The growth at 0.1 µM [46] was 108%, the growth at 0.1 µM [47] was 114% and the growth at 0.1 µM [48] was 117%. For the same molecule, the growth at 0.1 µM [49] was 107%, the MIC [50] was 500 µg/mL (≈ 1210 µM) and the “growth inhibition (GI)” value [51] was 99%. For the same molecule, the MIC ([51]; Mycobacterium tuberculosis, H37Rv) was 25 µg/mL (≈ 60.3 µM), the growth at 0.1 µM [52] was 98.3% and the growth at 0.1 µM [53] was 100%. It also gave a growth at 0.1 µM [54] of 105%, a growth at 0.1 µM [55] of 101% and a growth at 0.1 µM [56] of 106%. The growth at 0.1 µM [57] was 101%, the growth at 0.1 µM [58] was 107% and the growth at 0.1 µM [59] was 108%. It also gave a growth at 0.1 µM [60] of 147%, a growth at 0.1 µM [61] of 116% and a growth at 0.1 µM [62] of 106%. The growth at 0.1 µM [63] was 102%.
